{"source": "patent US12162840B2", "about": "“Herbicidal compositions” (SYNGENTA PARTICIPATIONS AG, priority 2018, dated 2024)", "system": "cool season plant species", "experiment": "B2 Post-emergence efficacy Test 2, cool season plant species", "type": "in vivo", "details": "15 days after application, 0=no damage, 100=total kill", "in_short": "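Plants at 12 days post-sowing were sprayed with active ingredient formulated in IF50 plus 0.2% v/v Genapol XO80, then grown in a glasshouse (24/18 °C or 20/16 °C day/night, 16 h light, 65% humidity). Damage scored 15 days after application on 0–100 scale (100 = total kill).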", "data": [{"smiles": "Cc1nn(C)c(=O)c(-c2c(F)ccc(Cl)c2CCc2ccc(F)cc2)c1OC(=O)C(C)C", "note": "[Compound 1.125]", "values": [{"measurement": "Herbicidal activity (0-100 scale) ALOMY", "setting": "15 g/Ha", "result": 10}, {"measurement": "Herbicidal activity (0-100 scale) ALOMY", "setting": "30 g/Ha", "result": 10}, {"measurement": "Herbicidal activity (0-100 scale) ALOMY", "setting": "60 g/Ha", "result": 30}, {"measurement": "Herbicidal activity (0-100 scale) ALOMY", "setting": "125 g/Ha", "result": 30}, {"measurement": "Herbicidal activity (0-100 scale) ALOMY", "setting": "250 g/Ha", "result": 60}, {"measurement": "Herbicidal activity (0-100 scale) ALOMY", "setting": "500 g/Ha", "result": 40}, {"measurement": "Herbicidal activity (0-100 scale) AVEFA", "setting": "15 g/Ha", "result": 30}, {"measurement": "Herbicidal activity (0-100 scale) AVEFA", "setting": "30 g/Ha", "result": 40}, {"measurement": "Herbicidal activity (0-100 scale) AVEFA", "setting": "60 g/Ha", "result": 60}, {"measurement": "Herbicidal activity (0-100 scale) AVEFA", "setting": "125 g/Ha", "result": 70}, {"measurement": "Herbicidal activity (0-100 scale) AVEFA", "setting": "250 g/Ha", "result": 70}, {"measurement": "Herbicidal activity (0-100 scale) AVEFA", "setting": "500 g/Ha", "result": 80}, {"measurement": "Herbicidal activity (0-100 scale) BEAVA", "setting": "15 g/Ha", "result": 70}, {"measurement": "Herbicidal activity (0-100 scale) BEAVA", "setting": "30 g/Ha", "result": 60}, {"measurement": "Herbicidal activity (0-100 scale) BEAVA", "setting": "60 g/Ha", "result": 60}, {"measurement": "Herbicidal activity (0-100 scale) BEAVA", "setting": "125 g/Ha", "result": 70}, {"measurement": "Herbicidal activity (0-100 scale) BEAVA", "setting": "250 g/Ha", "result": 70}, {"measurement": "Herbicidal activity (0-100 scale) BEAVA", "setting": "500 g/Ha", "result": 70}, {"measurement": "Herbicidal activity (0-100 scale) BROTE", "setting": "15 g/Ha", "result": 0}, {"measurement": "Herbicidal activity (0-100 scale) BROTE", "setting": "30 g/Ha", "result": 0}, {"measurement": "Herbicidal activity (0-100 scale) BROTE", "setting": "60 g/Ha", "result": 0}, {"measurement": "Herbicidal activity (0-100 scale) BROTE", "setting": "125 g/Ha", "result": 0}, {"measurement": "Herbicidal activity (0-100 scale) BROTE", "setting": "250 g/Ha", "result": 10}, {"measurement": "Herbicidal activity (0-100 scale) BROTE", "setting": "500 g/Ha", "result": 10}, {"measurement": "Herbicidal activity (0-100 scale) BRSNN", "setting": "15 g/Ha", "result": 80}, {"measurement": "Herbicidal activity (0-100 scale) BRSNN", "setting": "30 g/Ha", "result": 80}, {"measurement": "Herbicidal activity (0-100 scale) BRSNN", "setting": "60 g/Ha", "result": 80}, {"measurement": "Herbicidal activity (0-100 scale) BRSNN", "setting": "125 g/Ha", "result": 90}, {"measurement": "Herbicidal activity (0-100 scale) BRSNN", "setting": "250 g/Ha", "result": 90}, {"measurement": "Herbicidal activity (0-100 scale) BRSNN", "setting": "500 g/Ha", "result": 90}, {"measurement": "Herbicidal activity (0-100 scale) CHEAL", "setting": "15 g/Ha", "result": 90}, {"measurement": "Herbicidal activity (0-100 scale) CHEAL", "setting": "30 g/Ha", "result": 90}, {"measurement": "Herbicidal activity (0-100 scale) CHEAL", "setting": "60 g/Ha", "result": 90}, {"measurement": "Herbicidal activity (0-100 scale) CHEAL", "setting": "125 g/Ha", "result": 90}, {"measurement": "Herbicidal activity (0-100 scale) CHEAL", "setting": "250 g/Ha", "result": 90}, {"measurement": "Herbicidal activity (0-100 scale) CHEAL", "setting": "500 g/Ha", "result": 90}, {"measurement": "Herbicidal activity (0-100 scale) GALAP", "setting": "30 g/Ha", "result": 20}, {"measurement": "Herbicidal activity (0-100 scale) GALAP", "setting": "60 g/Ha", "result": 20}, {"measurement": "Herbicidal activity (0-100 scale) GALAP", "setting": "125 g/Ha", "result": 30}, {"measurement": "Herbicidal activity (0-100 scale) GALAP", "setting": "250 g/Ha", "result": 40}, {"measurement": "Herbicidal activity (0-100 scale) GALAP", "setting": "500 g/Ha", "result": 70}, {"measurement": "Herbicidal activity (0-100 scale) HORVW", "setting": "15 g/Ha", "result": 0}, {"measurement": "Herbicidal activity (0-100 scale) HORVW", "setting": "30 g/Ha", "result": 0}, {"measurement": "Herbicidal activity (0-100 scale) HORVW", "setting": "60 g/Ha", "result": 10}, {"measurement": "Herbicidal activity (0-100 scale) HORVW", "setting": "125 g/Ha", "result": 10}, {"measurement": "Herbicidal activity (0-100 scale) HORVW", "setting": "250 g/Ha", "result": 10}, {"measurement": "Herbicidal activity (0-100 scale) HORVW", "setting": "500 g/Ha", "result": 10}, {"measurement": "Herbicidal activity (0-100 scale) KCHSC", "setting": "15 g/Ha", "result": 0}, {"measurement": "Herbicidal activity (0-100 scale) KCHSC", "setting": "30 g/Ha", "result": 20}, {"measurement": "Herbicidal activity (0-100 scale) KCHSC", "setting": "60 g/Ha", "result": 30}, {"measurement": "Herbicidal activity (0-100 scale) KCHSC", "setting": "125 g/Ha", "result": 50}, {"measurement": "Herbicidal activity (0-100 scale) KCHSC", "setting": "250 g/Ha", "result": 60}, {"measurement": "Herbicidal activity (0-100 scale) KCHSC", "setting": "500 g/Ha", "result": 70}, {"measurement": "Herbicidal activity (0-100 scale) LOLPE", "setting": "15 g/Ha", "result": 40}, {"measurement": "Herbicidal activity (0-100 scale) LOLPE", "setting": "30 g/Ha", "result": 50}, {"measurement": "Herbicidal activity (0-100 scale) LOLPE", "setting": "60 g/Ha", "result": 60}, {"measurement": "Herbicidal activity (0-100 scale) LOLPE", "setting": "125 g/Ha", "result": 70}, {"measurement": "Herbicidal activity (0-100 scale) LOLPE", "setting": "250 g/Ha", "result": 80}, {"measurement": "Herbicidal activity (0-100 scale) LOLPE", "setting": "500 g/Ha", "result": 90}, {"measurement": "Herbicidal activity (0-100 scale) POAAN", "setting": "15 g/Ha", "result": 0}, {"measurement": "Herbicidal activity (0-100 scale) POAAN", "setting": "30 g/Ha", "result": 10}, {"measurement": "Herbicidal activity (0-100 scale) POAAN", "setting": "60 g/Ha", "result": 20}, {"measurement": "Herbicidal activity (0-100 scale) POAAN", "setting": "125 g/Ha", "result": 60}, {"measurement": "Herbicidal activity (0-100 scale) POAAN", "setting": "250 g/Ha", "result": 70}, {"measurement": "Herbicidal activity (0-100 scale) POAAN", "setting": "500 g/Ha", "result": 60}, {"measurement": "Herbicidal activity (0-100 scale) POLCO", "setting": "15 g/Ha", "result": 90}, {"measurement": "Herbicidal activity (0-100 scale) POLCO", "setting": "30 g/Ha", "result": 90}, {"measurement": "Herbicidal activity (0-100 scale) POLCO", "setting": "60 g/Ha", "result": 90}, {"measurement": "Herbicidal activity (0-100 scale) POLCO", "setting": "125 g/Ha", "result": 90}, {"measurement": "Herbicidal activity (0-100 scale) POLCO", "setting": "250 g/Ha", "result": 90}, {"measurement": "Herbicidal activity (0-100 scale) POLCO", "setting": "500 g/Ha", "result": 90}, {"measurement": "Herbicidal activity (0-100 scale) SINAR", "setting": "15 g/Ha", "result": 60}, {"measurement": "Herbicidal activity (0-100 scale) SINAR", "setting": "30 g/Ha", "result": 60}, {"measurement": "Herbicidal activity (0-100 scale) SINAR", "setting": "60 g/Ha", "result": 80}, {"measurement": "Herbicidal activity (0-100 scale) SINAR", "setting": "125 g/Ha", "result": 90}, {"measurement": "Herbicidal activity (0-100 scale) SINAR", "setting": "250 g/Ha", "result": 90}, {"measurement": "Herbicidal activity (0-100 scale) SINAR", "setting": "500 g/Ha", "result": 90}, {"measurement": "Herbicidal activity (0-100 scale) STEME", "setting": "15 g/Ha", "result": 90}, {"measurement": "Herbicidal activity (0-100 scale) STEME", "setting": "30 g/Ha", "result": 90}, {"measurement": "Herbicidal activity (0-100 scale) STEME", "setting": "60 g/Ha", "result": 90}, {"measurement": "Herbicidal activity (0-100 scale) STEME", "setting": "125 g/Ha", "result": 90}, {"measurement": "Herbicidal activity (0-100 scale) STEME", "setting": "250 g/Ha", "result": 90}, {"measurement": "Herbicidal activity (0-100 scale) STEME", "setting": "500 g/Ha", "result": 90}, {"measurement": "Herbicidal activity (0-100 scale) TRZAW", "setting": "15 g/Ha", "result": 0}, {"measurement": "Herbicidal activity (0-100 scale) TRZAW", "setting": "30 g/Ha", "result": 10}, {"measurement": "Herbicidal activity (0-100 scale) TRZAW", "setting": "60 g/Ha", "result": 10}, {"measurement": "Herbicidal activity (0-100 scale) TRZAW", "setting": "125 g/Ha", "result": 20}, {"measurement": "Herbicidal activity (0-100 scale) TRZAW", "setting": "250 g/Ha", "result": 30}, {"measurement": "Herbicidal activity (0-100 scale) TRZAW", "setting": "500 g/Ha", "result": 50}, {"measurement": "Herbicidal activity (0-100 scale) VERPE", "setting": "15 g/Ha", "result": 70}, {"measurement": "Herbicidal activity (0-100 scale) VERPE", "setting": "30 g/Ha", "result": 70}, {"measurement": "Herbicidal activity (0-100 scale) VERPE", "setting": "60 g/Ha", "result": 70}, {"measurement": "Herbicidal activity (0-100 scale) VERPE", "setting": "125 g/Ha", "result": 80}, {"measurement": "Herbicidal activity (0-100 scale) VERPE", "setting": "250 g/Ha", "result": 80}, {"measurement": "Herbicidal activity (0-100 scale) VERPE", "setting": "500 g/Ha", "result": 90}]}]}
